The nature of the assay: Transport activity, carboxyfluorescein release from vesicles, Hill analysis. The settings on record: EYPC⊃CF vesicles, no counterion activator. On the procedure: Transport activities for these novel PTDMs were determined using the standard biophysical assay well documented in the CPP literature. (Hennig, et al. 2008 J. Am. Chem. Soc. 130, 10338.) Specifically, 5(6)-carboxyfluorescein (CF) was used as a fluorescent probe in egg yolk phosphatidylcholine large unilamellar vesicles (EYPC-LUVs). The activity of these transporters increased with increasing polymer concentration at a constant vesicle concentration as detected by CF emission intensity, yielding plots of fluorescence intensity versus polymer concentration (FIG. 42, FIG. 43). […] (Sakai, et al. 2003 J. Am. Chem. Soc. 125, 14348; Sakai, et al. 2006 Soft Matter 2, 636; Sakai, et al. 2005 Chembiochem 6, 114; Hennig, et al. 2008 J. Am. Chem. Soc. 130, 10338; Nishihara, et al. 2005 Org. Biomol. Chem., 3, 1659; Perret, et al. 2005 J. Am. Chem. Soc. 127, 1114.) This analysis gave Ymax (maximal CF release relative to complete release by Triton X-100), EC50 (effective polymer concentration needed to reach Ymax/2), and the Hill coefficient n (see Table 2).
Preparation of EYPC-LUVs⊃CF. […]
Polymer Activity in EYPC-LUVs⊃CF. […] The time-dependent change in fluorescence intensity It (λex=492 nm, λem=517 nm) was monitored during the addition of polymer (20 μL stock solution in DMSO) at t=100 s, and addition of 40 μl 1.2% (aq.) triton X-100 at the end of every experiment (t=900 s) (FIG. 42). […]

As for polyarginine, the “transport activity” value is “inactive”.

Values taken from patent US10493159B2, “Protein transduction domains mimics” (University of Massachusetts, priority 2010, dated 2019).
